According to US20220175761A1, “BI-LIGAND DRUG CONJUGATE AND USE THEREOF” (COHERENT BIOPHARMA (SUZHOU), LIMITED, priority 2019, published 2022):
pIC50: −log10 of the molar value. Square brackets hold non-standard residues; d marks the D form. Peptide text beside a SMILES is read from it. * marks the point of attachment. Dolaproine = CO[C@@H]([C@@H]1CCCN1)[C@@H](C)C(=O)O; Dil = CC[C@H](C)[C@H](NC)[C@@H](CC(=O)O)OC; X1 = C[C@@H](N*)[C@@H](O)c1ccccc1; NMeV = CN[C@H](C(=O)O)C(C)C

Key:
LNCaP = assay: Pharmacodynamic study 2 in CDX model; type: in vivo, BALB/c-nude mice; details: 3 mg/kg D1, 8, 15, tail vein
Experimental: Experiment purpose: to perform a pharmacodynamic study of conjugate compound CB-20BK in a subcutaneous xenograft model (CDX) of humanized LNCaP, DU145 and NCI-H460 cell lines
The cells or tumor tissue mass were prepared and subcutaneously inoculated into the anterior right flank of BALB/c-nude mice. When the tumor volume expanded to 80-160 mm^3, a randomized grouping was performed, and a model control group and administration groups were set. The mice were administrated from the first day of grouping, wherein the administration dose was adjusted according to the latest weight measurement. The mice were administrated via tail vein injection at an administration volume of 10 μl/g. After grouping and administration, the effects of tumor growth and treatment on normal behaviors of animals, specifically including the activity of experimental animals, food intake and drinking status, weight gain or loss status, and other abnormal conditions in eyes, hair, etc., were monitored. After grouping and administration, the weight of mice was measured twice a week to calculate the rate of weight change; at the same time, the long diameter and short diameter of the tumor were measured with a vernier caliper, and the tumor volume, relative tumor proliferation rate, tumor volume inhibition rate and other indicators were calculated. […]

FOLH1 = FOLH1 (Homo sapiens, UniProt Q04609); assay: BIAcore T200: binding of FOLH1 to compound-FOLR1 complex; set-up: purchased Sino Biologicals (FOLH1); R&D System (FOLR1) 15877-H07H (FOLH1); 5646-FR (FOLR1)
FOLH1, sequence (Q04609 44-750 limits assumed): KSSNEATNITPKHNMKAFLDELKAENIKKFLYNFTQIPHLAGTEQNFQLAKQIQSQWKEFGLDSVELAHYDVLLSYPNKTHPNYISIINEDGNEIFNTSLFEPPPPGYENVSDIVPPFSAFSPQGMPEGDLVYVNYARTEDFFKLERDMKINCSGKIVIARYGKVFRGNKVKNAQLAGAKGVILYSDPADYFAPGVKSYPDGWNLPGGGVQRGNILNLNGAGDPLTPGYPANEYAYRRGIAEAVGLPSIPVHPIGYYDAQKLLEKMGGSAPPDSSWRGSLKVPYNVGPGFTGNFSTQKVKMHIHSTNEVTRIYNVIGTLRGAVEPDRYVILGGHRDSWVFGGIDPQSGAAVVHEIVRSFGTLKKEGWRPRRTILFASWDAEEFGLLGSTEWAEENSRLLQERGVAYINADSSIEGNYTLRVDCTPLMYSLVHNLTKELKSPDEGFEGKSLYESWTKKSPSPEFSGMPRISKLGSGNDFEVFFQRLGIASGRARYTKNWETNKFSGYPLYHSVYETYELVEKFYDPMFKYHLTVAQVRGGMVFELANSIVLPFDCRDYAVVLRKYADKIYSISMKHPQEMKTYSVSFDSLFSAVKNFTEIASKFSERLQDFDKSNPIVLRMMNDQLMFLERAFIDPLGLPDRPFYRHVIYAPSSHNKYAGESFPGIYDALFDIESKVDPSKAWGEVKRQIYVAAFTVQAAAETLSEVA
FOLH1, sequence (P15328 25-233 partner limits assumed): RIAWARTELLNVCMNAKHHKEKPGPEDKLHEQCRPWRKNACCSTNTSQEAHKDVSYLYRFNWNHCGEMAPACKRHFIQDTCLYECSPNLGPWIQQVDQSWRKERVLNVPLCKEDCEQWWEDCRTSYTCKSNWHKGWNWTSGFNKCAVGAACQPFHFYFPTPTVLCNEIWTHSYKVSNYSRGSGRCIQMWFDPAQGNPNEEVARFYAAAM
From the text: CM5 chip was conjugated with a ligand: FOLR1 (R&D System, Cat #: 5646-FR)
Analyte: CB-20BK, FA-MMAE and FOLH1 (Sino Biologicals, Cat #: 15877-H07H)
According to BIAcore T200 (GE) operating manual, FOLR1 was conjugated to the CM5 chip; CB-20BK or FA-MMAE was loaded first, and then FOLH1 was loaded; and the binding of FOLH1 to the CB-20BK-FOLR1 complex was detected.

[1] = system: MDA-MB-468 (human breast cancer cells); assay: Inhibition of cell line proliferation, CCK8; type: cell-based; details: MDA-MB-468, 68-72 hours, CCK8
[2] = system: lung cancer PDX model LU2505; assay: Effectiveness in lung cancer LU2505 model (PDX model); type: in vivo, BALB/c nude mice
From the text: The active substance of test sample CBP-1018 is CB-20BK, which is obtained by mixing CB-20BK with auxiliary materials and then lyophilizing same.

[3] = 0.375 mg/kg on day 1, 8, 15, D22

CC[C@H](C)[C@@H]([C@@H](CC(=O)N1CCC[C@H]1[C@H](OC)[C@@H](C)C(=O)N[C@H](C)[C@@H](O)c1ccccc1)OC)N(C)C(=O)[C@@H](NC(=O)[C@H](C(C)C)N(C)C(=O)OCc1ccc(NC(=O)C(CCCNC(N)=O)NC(=O)[C@@H](NC(=O)CCCCCN2C(=O)CC(SC[C@H](NC(=O)[C@H](CCCCN)NC(=O)[C@H](CC(=O)O)NC(=O)[C@H](CC(=O)O)NC(=O)Cc3ccc(CNC(=O)NCCCC[C@H](NC(=O)N[C@@H](CCC(=O)O)C(=O)O)C(=O)O)cc3)C(=O)N[C@@H](CCCCNC(=O)CC[C@H](NC(=O)c3ccc(NCc4cnc5[nH]c(N)nc(=O)c5n4)cc3)C(=O)O)C(N)=O)C2=O)C(C)C)cc1)C(C)C (some centres unmarked) [CB-20BK]
Tumor growth inhibition rate (TGI) (LNCaP): 95.68% | Binding of compound-FOLR1 complex to FOLH1 solution (FOLH1; FOLH1 concentration 0.0625 μM): −0.9 RU | Binding of compound-FOLR1 complex to FOLH1 solution (FOLH1; FOLH1 concentration 0.125 μM): 4.6 RU | Binding of compound-FOLR1 complex to FOLH1 solution (FOLH1; FOLH1 concentration 0.25 μM): 14.1 RU | Binding of compound-FOLR1 complex to FOLH1 solution (FOLH1; FOLH1 concentration 0.5 μM): 23.9 RU | amount of FOLH1 bound to compound-FOLR1 complex (in words) (FOLH1; FOLH1 solution at a high concentration): significantly higher than that bound to an FA-MMAE-FOLR1 complex

CC[C@H](C)[C@@H]([C@@H](CC(=O)N1CCC[C@H]1[C@H](OC)[C@@H](C)C(=O)N[C@H](C)[C@@H](O)c1ccccc1)OC)N(C)C(=O)[C@@H](NC(=O)[C@@H](NC)C(C)C)C(C)C [MMAE, monomethyl auristatin E] (H-[NMeV]V[Dil][Dolaproine]-X1)
pIC50 [1]: 8.70 | tumor growth inhibition effect (in words) ([2]; 0.375 mg/kg): clear tumor growth inhibition effect | Tumor growth inhibition rate TGI % [2, 3]: 48.97% | Tumor volume [2, 3]: 1132.61 mm^3 | Tumor weight ([2]; 0.375 mg/kg on day 1, 8, 15, D29): 1597.1 (D29) mg
